# Test results from patent publication US11851440B2, “Modulators of eukaryotic initiation factor 2B, compositions and methods” (Denali Therapeutics Inc., priority 2017, dated 2023).
# pIC50: −log10 of the molar value.
# Tested on: ISR pathway (ATF4 translation)
# Assay: ATF4 Nano Luciferase reporter integrated stress response (ISR) assay in H4 ATF4-NLuc cells
# Settings: Homo sapiens, read-out: Activity (IC50), H4 ATF4-NLuc (clone 17) cells; compound 30 minutes, then 50 um sodium arsenite for 6 hours; luminescence readout
row,SMILES,pIC50
1,"O=C(COc1ccc(Cl)cc1)NC12CC(c3nnc([C@H]4C[C@@H](COC(F)(F)F)C4)o3)(C1)C2 [Example 86, 2-(4-chlorophenoxy)-N-[3-[5-[3-cis-(trifluoromethoxymethyl)cyclobutyl]-1,3,4-oxadiazol-2-yl]-1-bicyclo[1.1.1]pentanyl]acetamide]",> 6.00
2,"O=C(NC12CC(c3nnc([C@H]4C[C@@H](OC(F)(F)F)C4)o3)(C1)C2)OC[C@H]1C[C@@H](OC(F)(F)F)C1 [Example 88, [3-cis-(trifluoromethoxy)cyclobutyl]methyl N-[3-[5-[3-cis-(trifluoromethoxy)cyclobutyl]-1,3,4-oxadiazol-2-yl]-1-bicyclo[1.1.1]pentanyl]carbamate]",> 6.00
3,"O=C(CO[C@H]1C[C@@H](COC(F)(F)F)C1)NC12CC(c3nnc([C@H]4C[C@@H](OC(F)(F)F)C4)o3)(C1)C2 [Example 89, N-[3-[5-[3-cis-(trifluoromethoxy)cyclobutyl]-1,3,4-oxadiazol-2-yl]-1-bicyclo[1.1.1]pentanyl]-2-[3-cis-(trifluoromethoxymethyl)cyclobutoxy]acetamide]",> 6.00
4,"O=C(COc1ccc(Cl)c(F)c1)NC12CC(c3nnc(C4(F)CN(CC(F)(F)F)C4)o3)(C1)C2 [Example 93, 2-(4-chloro-3-fluoro-phenoxy)-N-[3-[5-[3-fluoro-1-(2,2,2-trifluoroethyl)azetidin-3-yl]-1,3,4-oxadiazol-2-yl]-1-bicyclo[1.1.1]pentanyl]acetamide]",> 6.00
5,"O=C(COCCOC(F)(F)F)NC12CC(c3nnc([C@H]4C[C@@H](OC(F)(F)F)C4)o3)(C1)C2 [Example 94, N-[3-[5-[3-cis-(trifluoromethoxy)cyclobutyl]-1,3,4-oxadiazol-2-yl]-1-bicyclo[1.1.1]pentanyl]-2-[2-(trifluoromethoxy)ethoxy]acetamide]",5.00 to 6.00
6,"O=C(CO[C@H]1C[C@H](OC(F)(F)F)C1)NC12CC(c3nnc([C@H]4C[C@@H](OC(F)(F)F)C4)o3)(C1)C2 [Example 95, 2-[3-trans-(trifluoromethoxy)cyclobutoxy]-N-[3-[5-[3-cis-(trifluoromethoxy)cyclobutyl]-1,3,4-oxadiazol-2-yl]-1-bicyclo[1.1.1]pentanyl]acetamide]",> 6.00
7,"Cc1nc(C2CC(OC(F)(F)F)C2)cn1C12CC(NC(=O)CO[C@H]3C[C@@H](OC(F)(F)F)C3)(C1)C2 (stereo partly drawn) [Example 96, N-[3-[2-methyl-4-[3-(trifluoromethoxy)cyclobutyl]imidazol-1-yl]-1-bicyclo[1.1.1]pentanyl]-2-[3-cis-(trifluoromethoxy)cyclobutoxy]acetamide]",> 6.00
8,"O=C(COCc1cncc(Cl)c1)NC12CC(c3nnc([C@H]4C[C@@H](OC(F)(F)F)C4)o3)(C1)C2 [Example 97, 2-[(5-chloro-3-pyridyl)methoxy]-N-[3-[5-[3-cis-(trifluoromethoxy)cyclobutyl]-1,3,4-oxadiazol-2-yl]-1-bicyclo[1.1.1]pentanyl]acetamide]",5.00 to 6.00
9,"O=C(NC12CC(c3nnc([C@H]4C[C@@H](OC(F)(F)F)C4)o3)(C1)C2)c1cc(C2CC2)on1 [Example 98, 5-cyclopropyl-N-[3-[5-[3-cis-(trifluoromethoxy)cyclobutyl]-1,3,4-oxadiazol-2-yl]-1-bicyclo[1.1.1]pentanyl]isoxazole-3-carboxamide]",5.00 to 6.00
10,"O=C(NC12CC(c3nnc([C@H]4C[C@@H](OC(F)(F)F)C4)o3)(C1)C2)C1=NO[C@@H](c2ccccc2)C1 [Example 99, cis-(R)-5-phenyl-N-(3-(5-(3-(trifluoromethoxy)cyclobutyl)-1,3,4-oxadiazol-2-yl)bicyclo[1.1.1]pentan-1-yl)-4,5-dihydroisoxazole-3-carboxamide]",< 5.00

# Same assay, conditions: read-out: Activity (IC50); H4 ATF4-NLuc (clone 17) cells; compound 30 minutes, then 50 um sodium arsenite for 6 hours; luminescence readout
row,SMILES,pIC50
1,"O=C(COc1ccc(Cl)cc1)NC12CC(c3nnc([C@H]4C[C@H](COC(F)(F)F)C4)o3)(C1)C2 [Example 87, 2-(4-chlorophenoxy)-N-[3-[5-[3-trans-(trifluoromethoxymethyl)cyclobutyl]-1,3,4-oxadiazol-2-yl]-1-bicyclo[1.1.1]pentanyl]acetamide]",> 6.00
